#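 Each compound was tested at five concentrations against cells in 96-well plates for 48 hours. At the GI50, growth is halved. TGI denotes the concentration required for complete inhibition of growth.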
# Assays:
# Test in all cases: inhibition of tumour cell growth, NCI panel, 48 h
# [1] = system: HOP-62 NSCLC
# [2] = system: UACC-62 melanoma
# [3] = system: SF-295 CNS
# [4] = system: EKVX NSCLC
# [5] = system: SF-539 CNS
# [6] = system: M14 melanoma
# [7] = system: PC-3 prostate
# [8] = system: RXF 393 renal
# [9] = system: HCC-2998 colon
# [10] = system: 786-0 renal
# [11] = system: NCI-H522 lung
# [12] = system: ACHN renal
# [13] = system: NCI-H23 lung
# [14] = system: SR leukemia
# [15] = system: HCT-15 colon
# [16] = system: OVCAR-4 ovarian
# [17] = system: T-47D breast
# [18] = system: MCF7 breast
# [19] = system: MDA-MB-231 breast
# [20] = system: NCI-H226 lung
# [21] = system: UO-31 renal
# [22] = system: SNB-19 CNS
# [23] = system: HOP-92 NSCLC
# [24] = system: SK-OV-3 ovarian
# [25] = system: SK-MEL-5 melanoma
# [26] = system: RPMI-8226 leukemia
# [27] = system: SF-268 CNS
# [28] = system: UACC-257 melanoma
# [29] = system: IGROV1 ovarian
# [30] = system: HCT-116 colon
# [31] = system: TK-10 renal
# [32] = system: LOX IMVI melanoma
# [33] = system: A549 NSCLC
# [34] = system: MOLT-4 leukemia
# [35] = system: A498 renal
# [36] = system: OVCAR-3 ovarian
# [37] = system: DU-145 prostate
# [38] = system: KM12 colon
# [39] = system: HT29 colon
# [40] = system: CAKI-1 renal
# [41] = system: SN12C renal
# [42] = system: U251 CNS
# [43] = system: SK-MEL-2 melanoma
# [44] = system: MDA-MB-435
# [45] = system: CCRF-CEM leukemia
# [46] = system: OVCAR-5 ovarian
# [47] = system: HS 578T breast
# [48] = system: SK-MEL-28 melanoma
# [49] = system: COLO 205 colon
# [50] = system: BT-549 breast
# [51] = system: SW-620 colon
# [52] = system: HL-60(TB) leukemia
# [53] = system: K-562 leukemia
# [54] = system: OVCAR-8 ovarian
# [55] = system: MDA-MB-468 breast
# [56] = system: MALME-3M melanoma
# [57] = system: NCI-H460 lung
compound,measurement,setting,value
CN(C)c1nc(NCCNS(=O)(=O)c2ccc(C3=Nc4c(N)nc(N)nc4NC(c4ccc(C(F)(F)F)cc4)C3)cc2)nc(N2CCOCC2)n1 (stereo not drawn),GI50,[1],50.7 µM
same,TGI,[1],> 100 µM
same,GI50,[2],16.4 µM
same,TGI,[2],36.4 µM
same,GI50,[3],21.1 µM
same,TGI,[3],83.7 µM
same,GI50,[4],47.2 µM
same,TGI,[4],> 100 µM
same,GI50,[5],22.5 µM
same,TGI,[5],87.9 µM
same,GI50,[6],22 µM
same,TGI,[6],63.8 µM
same,GI50,[7],24.6 µM
same,TGI,[7],> 100 µM
same,GI50,[8],10.3 µM
same,TGI,[8],45.5 µM
same,GI50,[9],20.2 µM
same,TGI,[9],46.4 µM
same,GI50,[10],20.8 µM
same,TGI,[10],> 100 µM
same,GI50,[11],51.7 µM
same,TGI,[11],> 100 µM
same,GI50,[12],64.4 µM
same,TGI,[12],> 100 µM
same,GI50,[13],37.6 µM
same,TGI,[13],> 100 µM
same,GI50,[14],18.1 µM
same,TGI,[14],> 100 µM
same,GI50,[15],30.9 µM
same,TGI,[15],> 100 µM
same,GI50,[16],37 µM
same,TGI,[16],> 100 µM
same,GI50,[17],21.3 µM
same,TGI,[17],> 100 µM
same,GI50,[18],18.1 µM
same,TGI,[18],81.3 µM
same,GI50,[19],16.9 µM
same,TGI,[19],44.4 µM
same,GI50,[20],17.6 µM
same,TGI,[20],> 100 µM
same,GI50,[21],> 100 µM
same,TGI,[21],> 100 µM
same,GI50,[22],30 µM
same,TGI,[22],> 100 µM
same,GI50,[23],7.48 µM
same,TGI,[23],48.3 µM
same,GI50,[24],69.7 µM
same,TGI,[24],> 100 µM
same,GI50,[25],15.9 µM
same,TGI,[25],30.1 µM
same,GI50,[26],11.2 µM
same,TGI,[26],> 100 µM
same,GI50,[27],19.9 µM
same,TGI,[27],> 100 µM
same,GI50,[28],20.4 µM
same,TGI,[28],54.9 µM
same,GI50,[29],27 µM
same,TGI,[29],> 100 µM
same,GI50,[30],41.9 µM
same,TGI,[30],> 100 µM
same,GI50,[31],54.4 µM
same,TGI,[31],> 100 µM
same,GI50,[32],17.1 µM
same,TGI,[32],33.2 µM
same,GI50,[33],51.3 µM
same,TGI,[33],> 100 µM
same,GI50,[34],17.3 µM
same,TGI,[34],> 100 µM
same,GI50,[35],24.1 µM
same,TGI,[35],82.9 µM
same,GI50,[36],53.9 µM
same,TGI,[36],> 100 µM
same,GI50,[37],72 µM
same,TGI,[37],> 100 µM
same,GI50,[38],37 µM
same,TGI,[38],> 100 µM
same,GI50,[39],19.8 µM
same,TGI,[39],48.2 µM
same,GI50,[40],25.9 µM
same,TGI,[40],> 100 µM
same,GI50,[41],35.7 µM
same,TGI,[41],> 100 µM
same,GI50,[42],24.2 µM
same,TGI,[42],> 100 µM
same,GI50,[43],15.8 µM
same,TGI,[43],30.2 µM
same,GI50,[44],34.2 µM
same,TGI,[44],> 100 µM
same,GI50,[45],25.9 µM
same,TGI,[45],> 100 µM
same,GI50,[46],27 µM
same,TGI,[46],95.9 µM
same,GI50,[47],19.2 µM
same,TGI,[47],> 100 µM
same,GI50,[48],34.1 µM
same,TGI,[48],> 100 µM
same,GI50,[49],16.5 µM
same,TGI,[49],35.5 µM
same,GI50,[50],13.8 µM
same,TGI,[50],31.8 µM
same,GI50,[51],46.9 µM
same,TGI,[51],> 100 µM
same,GI50,[52],27.4 µM
same,TGI,[52],83.9 µM
same,GI50,[53],29.1 µM
same,TGI,[53],> 100 µM
same,GI50,[54],59.5 µM
same,TGI,[54],> 100 µM
same,GI50,[55],13.7 µM
same,TGI,[55],30.9 µM
same,GI50,[56],19.9 µM
same,TGI,[56],53.3 µM
same,GI50,[57],36.5 µM
same,TGI,[57],> 100 µM
C=CC(=O)N1CCN(c2ccc3nc4c(nc3c2C(F)(F)F)C(=O)c2ncccc2C4=O)CC1,GI50,[1],10.9 µM
same,TGI,[1],39.8 µM
same,GI50,[2],2.05 µM
same,TGI,[2],5.31 µM
same,GI50,[3],4.1 µM
same,TGI,[3],16.9 µM
same,GI50,[4],8.45 µM
same,TGI,[4],21.9 µM
same,GI50,[5],3.39 µM
same,TGI,[5],11.7 µM
same,GI50,[6],2.53 µM
same,TGI,[6],12.3 µM
same,GI50,[7],2.52 µM
same,TGI,[7],> 98 µM
same,GI50,[8],3.59 µM
same,TGI,[8],15.8 µM
same,GI50,[9],5.44 µM
same,TGI,[9],18.1 µM
same,GI50,[10],9.96 µM
same,TGI,[10],66.6 µM
same,GI50,[11],9.95 µM
same,TGI,[11],23.8 µM
same,GI50,[12],6.41 µM
same,TGI,[12],20.5 µM
same,GI50,[13],1.97 µM
same,TGI,[13],9.88 µM
same,GI50,[14],3.18 µM
same,TGI,[14],> 98 µM
same,GI50,[15],2.39 µM
same,TGI,[15],11.9 µM
same,GI50,[16],2.41 µM
same,TGI,[16],6.7 µM
same,GI50,[17],2.66 µM
same,TGI,[17],9.9 µM
same,GI50,[18],1.77 µM
same,TGI,[18],5.48 µM
same,GI50,[19],2.95 µM
same,TGI,[19],10.7 µM
same,GI50,[20],10.9 µM
same,TGI,[20],27.7 µM
same,GI50,[21],11 µM
same,TGI,[21],25.7 µM
same,GI50,[22],5.4 µM
same,TGI,[22],20.1 µM
same,GI50,[23],19 µM
same,TGI,[23],57.1 µM
same,GI50,[24],19.4 µM
same,TGI,[24],79.6 µM
same,GI50,[25],1.39 µM
same,TGI,[25],2.67 µM
same,GI50,[26],3.1 µM
same,TGI,[26],40.7 µM
same,GI50,[27],7.76 µM
same,TGI,[27],63.6 µM
same,GI50,[28],1.72 µM
same,TGI,[28],4.16 µM
same,GI50,[29],2.9 µM
same,TGI,[29],12.3 µM
same,GI50,[30],2.67 µM
same,TGI,[30],7.4 µM
same,GI50,[31],18.6 µM
same,TGI,[31],97.6 µM
same,GI50,[32],2.09 µM
same,TGI,[32],6.37 µM
same,GI50,[33],3.05 µM
same,TGI,[33],14.7 µM
same,GI50,[34],3.28 µM
same,TGI,[34],21.2 µM
same,GI50,[35],15.6 µM
same,TGI,[35],29.8 µM
same,GI50,[36],2.24 µM
same,TGI,[36],6.35 µM
same,GI50,[37],6.16 µM
same,TGI,[37],20 µM
same,GI50,[38],4.61 µM
same,TGI,[38],55.3 µM
same,GI50,[39],3.27 µM
same,TGI,[39],11 µM
same,GI50,[40],9.74 µM
same,TGI,[40],38 µM
same,GI50,[41],2.27 µM
same,TGI,[41],8.31 µM
same,GI50,[42],3.11 µM
same,TGI,[42],13.3 µM
same,GI50,[43],3.01 µM
same,TGI,[43],13.2 µM
same,GI50,[44],1.68 µM
same,TGI,[44],3.21 µM
same,GI50,[45],2.99 µM
same,TGI,[45],> 98 µM
same,GI50,[46],11.8 µM
same,TGI,[46],25.2 µM
same,GI50,[47],16.9 µM
same,TGI,[47],56.4 µM
same,GI50,[48],10.8 µM
same,TGI,[48],28.2 µM
same,GI50,[49],2.42 µM
same,TGI,[49],7.83 µM
same,GI50,[50],7.17 µM
same,TGI,[50],20.3 µM
same,GI50,[51],2.88 µM
same,TGI,[51],11 µM
same,GI50,[52],3.34 µM
same,TGI,[52],> 98 µM
same,GI50,[53],4.4 µM
same,TGI,[53],> 98 µM
same,GI50,[54],2.99 µM
same,TGI,[54],11.6 µM
same,GI50,[55],1.58 µM
same,TGI,[55],3.67 µM
same,GI50,[56],1.3 µM
same,TGI,[56],2.67 µM
same,GI50,[57],1.25 µM
same,TGI,[57],3.75 µM

# Reference: PubChem BioAssay (NCI)
